{"source": "paper PMC6925622", "about": "(Clinical pharmacology and therapeutics, 2019)", "key": {"[1]": {"test_system": "CYP3A5 and CYP3A4", "conditions": "preferentially inhibits CYP3A4; cited from earlier work"}, "[2]": {"test_system": "CYP3A5", "conditions": "cited from earlier work"}, "[3]": {"test_system": "CYP3A5", "conditions": "midazolam is the CYP3A probe, cited from earlier work"}, "[4]": {"test_system": "CYP3A4", "conditions": "midazolam is the CYP3A probe, cited from earlier work"}, "[5]": {"test_system": "CYP3A4/5", "assay": "Clinical midazolam-ketoconazole interaction study", "type": "in vivo, human", "conditions": "for CLpo (oral clearance) / Cmax /Dose: oral midazolam"}, "[6]": {"assay": "Clinical study control phase: midazolam pharmacokinetics by CYP3A5 genotype", "type": "in vivo, human", "conditions": "for Clearance Oral GM (90% CI): Observed, single dose of midazolam, blood clearance; for clearance: iv, 0.05 mg/kg, CLsys (systemic clearance), IV midazolam; for clearance / bioavailability / Tmax / half-life / CLpo (oral clearance) / Cmax /Dose: midazolam alone (control); for bioavailability: Fpo (oral bioavailability); for Tmax / CLpo (oral clearance) / Cmax /Dose: oral midazolam; for half-life: t1/2 (terminal half-life); for intestinal availability (FG): midazolam alone"}, "[7]": {"conditions": "cited from earlier work"}, "[8]": {"conditions": "after 200 mg KTZ, CYP3A5*3/*7 (n=1)"}, "[9]": {"conditions": "after 400 mg KTZ, CYP3A5*3/*7 (n=1)"}, "[10]": {"conditions": "geometric mean, after 200 mg KTZ, CYP3A5*3/*3 non-expressers"}, "[11]": {"conditions": "geometric mean, after 200 mg KTZ, CYP3A5 expressers"}, "[12]": {"conditions": "geometric mean, after 400 mg KTZ, CYP3A5*1/*1"}, "[13]": {"conditions": "geometric mean, after 400 mg KTZ, CYP3A5*1/*3 and *1/*6"}, "[14]": {"conditions": "geometric mean, after 400 mg KTZ, CYP3A5*3/*3 non-expressers"}, "[15]": {"conditions": "geometric mean, after 400 mg KTZ, CYP3A5 expressers"}, "[16]": {"conditions": "human, serum, geometric mean, CYP3A5*1/*1 (n=6)"}, "[17]": {"conditions": "human, serum, geometric mean, CYP3A5*1/*3 and *1/*6 (n=9)"}, "[18]": {"conditions": "human, serum, geometric mean, CYP3A5*3/*3 non-expressers (n=8)"}, "[19]": {"conditions": "human, serum, geometric mean, CYP3A5 expressers (n=15)"}, "[20]": {"conditions": "human, serum, CYP3A5*3/*7 (n=1)"}, "[21]": {"conditions": "geometric mean, CYP3A5*1/*1 (n=6)"}, "[22]": {"conditions": "geometric mean, CYP3A5*1/*3 and *1/*6 (n=9)"}, "[23]": {"conditions": "geometric mean, CYP3A5 expressers (n=15)"}}, "note": "“And” between values parts separate entries of the source, which are not always exact repeats. Equal values may be shown once.", "data": [{"smiles": "CCC(C)n1ncn(-c2ccc(N3CCN(c4ccc(OCC5COC(Cn6cncn6)(c6ccc(Cl)cc6Cl)O5)cc4)CC3)cc2)c1=O", "note": "(centres unmarked) [Itraconazole]", "values": [{"measurement": "Ki,3A5/Ki,3A4", "setting": "[1]", "value": "≥ 7"}]}, {"smiles": "OC(Cn1cncn1)(Cn1cncn1)c1ccc(F)cc1F", "note": "[fluconazole]", "values": [{"measurement": "changes of midazolam metabolites formation across CYP3A5 genotypes", "setting": "[2]", "value": "did not result in differential changes"}]}, {"smiles": "CC(=O)N1CCN(c2ccc(OCC3COC(Cn4ccnc4)(c4ccc(Cl)cc4Cl)O3)cc2)CC1", "note": "(centres unmarked) [ketoconazole]", "values": [{"measurement": "Ki towards CYP3A5", "setting": "[3]", "value": "[…]"}, {"measurement": "Ki", "setting": "[3]; read-out: Ki towards CYP3A5", "value": "[…]"}, {"measurement": "Ki towards CYP3A4", "setting": "[4]", "value": "[…]"}, {"measurement": "Ki", "setting": "[4]; read-out: Ki towards CYP3A4", "value": "[…]"}, {"measurement": "difference in the AUC0–10hr of ketoconazole between the 6th and 7th day of dosing", "setting": "[5]; ketoconazole 200 mg or 400 mg", "value": "no significant difference"}, {"measurement": "inhibition of gut CYP3A", "setting": "[5]; ketoconazole 200 and 400 mg doses", "value": "almost complete inhibition"}]}, {"smiles": "Cc1ncc2n1-c1ccc(Cl)cc1C(c1ccccc1F)=NC2", "note": "[midazolam]", "values": [{"measurement": "CLpo (oral clearance)", "setting": "[5]; [8]", "value": 4.6, "unit": "L/h"}, {"measurement": "Cmax /Dose", "setting": "[5]; [8]", "value": 18.1, "unit": "ng/mL"}, {"measurement": "CLpo (oral clearance)", "setting": "[5]; [9]", "value": 2.7, "unit": "L/h"}, {"measurement": "Cmax /Dose", "setting": "[5]; [9]", "value": 21.2, "unit": "ng/mL"}, {"measurement": "Cmax /Dose", "setting": "[5]; geometric mean, after 200 mg KTZ, CYP3A5*1/*1", "value": 9.6, "unit": "ng/mL"}, {"measurement": "Cmax /Dose", "setting": "[5]; geometric mean, after 200 mg KTZ, CYP3A5*1/*3 and *1/*6", "value": 7.9, "unit": "ng/mL"}, {"measurement": "CLpo (oral clearance)", "setting": "[5]; [10]", "value": "7.0 ± 2.0 L/h and 7.0 L/h"}, {"measurement": "Cmax /Dose", "setting": "[5]; [10]", "value": 12.3, "unit": "ng/mL"}, {"measurement": "CLpo (oral clearance)", "setting": "[5]; [11]", "value": "13.3 ± 5.6", "unit": "L/h"}, {"measurement": "Cmax /Dose", "setting": "[5]; [11]", "value": 8.5, "unit": "ng/mL"}, {"measurement": "CLpo (oral clearance)", "setting": "[5]; [12]", "value": 8.2, "unit": "L/h"}, {"measurement": "Cmax /Dose", "setting": "[5]; [12]", "value": 9.4, "unit": "ng/mL"}, {"measurement": "CLpo (oral clearance)", "setting": "[5]; [13]", "value": 8.6, "unit": "L/h"}, {"measurement": "Cmax /Dose", "setting": "[5]; [13]", "value": 8.9, "unit": "ng/mL"}, {"measurement": "CLpo (oral clearance)", "setting": "[5]; [14]", "value": "4.9 ± 1.3 L/h and 4.9 L/h"}, {"measurement": "Cmax /Dose", "setting": "[5]; [14]", "value": 15.8, "unit": "ng/mL"}, {"measurement": "CLpo (oral clearance)", "setting": "[5]; [15]", "value": "8.4 ± 3.5 L/h and 8.4 L/h"}, {"measurement": "Cmax /Dose", "setting": "[5]; [15]", "value": 9.1, "unit": "ng/mL"}, {"measurement": "Clearance Oral GM (90% CI)", "setting": "[6]; CYP3A5 expressers", "value": "140 (114.5–171.3) L/hr"}, {"measurement": "Clearance Oral GM (90% CI)", "setting": "[6]; CYP3A5 non-expressers", "value": "105 (83.5–131.5) L/hr"}, {"measurement": "clearance", "setting": "[6]; [16]", "value": 540, "unit": "mL/min"}, {"measurement": "clearance", "setting": "[6]; [17]", "value": 550, "unit": "mL/min"}, {"measurement": "clearance", "setting": "[6]; [18]", "value": 402, "unit": "mL/min"}, {"measurement": "clearance", "setting": "[6]; [19]", "value": 547, "unit": "mL/min"}, {"measurement": "clearance", "setting": "[6]; [20]", "value": 318, "unit": "mL/min"}, {"measurement": "bioavailability", "setting": "[6]; human, serum, po, 4 mg, geometric mean, CYP3A5*1/*1 (n=6)", "value": 22, "unit": "%"}, {"measurement": "bioavailability", "setting": "[6]; human, serum, po, 4 mg, geometric mean, CYP3A5*1/*3 and *1/*6 (n=9)", "value": 23, "unit": "%"}, {"measurement": "bioavailability", "setting": "[6]; human, serum, po, 4 mg, geometric mean, CYP3A5*3/*3 non-expressers (n=8)", "value": 26, "unit": "%"}, {"measurement": "bioavailability", "setting": "[6]; human, serum, po, 4 mg, geometric mean, CYP3A5 expressers (n=15)", "value": 23, "unit": "%"}, {"measurement": "bioavailability", "setting": "[6]; human, serum, po, 4 mg, CYP3A5*3/*7 (n=1)", "value": 36, "unit": "%"}, {"measurement": "Tmax", "setting": "[6]; human, serum, po, 4 mg, Tmax, CYP3A5*3/*7 (n=1)", "value": 1, "unit": "h"}, {"measurement": "half-life", "setting": "[6]; [16]", "value": 2.76, "unit": "h"}, {"measurement": "half-life", "setting": "[6]; [17]", "value": 2.75, "unit": "h"}, {"measurement": "half-life", "setting": "[6]; [18]", "value": 3.05, "unit": "h"}, {"measurement": "half-life", "setting": "[6]; [19]", "value": 2.75, "unit": "h"}, {"measurement": "half-life", "setting": "[6]; [20]", "value": 5.25, "unit": "h"}, {"measurement": "intestinal availability (FG)", "setting": "[6]; CYP3A5 expressers", "value": "0.35±0.09"}, {"measurement": "intestinal availability (FG)", "setting": "[6]; CYP3A5 non-expressers", "value": "0.33±0.06"}, {"measurement": "CLpo (oral clearance)", "setting": "[6]; [21]", "value": 144, "unit": "L/h"}, {"measurement": "Cmax /Dose", "setting": "[6]; [21]", "value": 1.5, "unit": "ng/mL"}, {"measurement": "CLpo (oral clearance)", "setting": "[6]; [22]", "value": 137, "unit": "L/h"}, {"measurement": "Cmax /Dose", "setting": "[6]; [22]", "value": 1.6, "unit": "ng/mL"}, {"measurement": "CLpo (oral clearance)", "setting": "[6]; [23]", "value": "140 ± 66 L/h and 140 L/h"}, {"measurement": "Cmax /Dose", "setting": "[6]; [23]", "value": "1.6 ± 0.6 ng/mL and 1.6 ng/mL"}, {"measurement": "CLpo (oral clearance)", "setting": "[6]; CYP3A5*3/*7 (n=1)", "value": 55.7, "unit": "L/h"}, {"measurement": "Cmax /Dose", "setting": "[6]; CYP3A5*3/*7 (n=1)", "value": 3.4, "unit": "ng/mL"}, {"measurement": "Tmax", "setting": "[6]; CYP3A5 expressers (n=15)", "value": 0.7, "unit": "h"}, {"measurement": "inter-individual variability for the CLsys", "setting": "[6]; this study", "value": 2.3, "unit": "fold"}, {"measurement": "inter-individual variability of CLpo", "setting": "[6]; this study", "value": 7.0, "unit": "fold"}, {"measurement": "midazolam FG in SimCYP", "setting": "[7]; derived using plasma clearance and hepatic plasma flow", "value": 0.57}, {"measurement": "inter-individual variability of midazolam clearance in other studies", "setting": "[7]; other studies", "value": "3.3- to 5.2 fold"}]}]}
